According to ChEMBL document CHEMBL6114992, “Design, synthesis, biological evaluation, and mechanism of action of new pyrazines as anticancer agents in vitro and in vivo” (Bioorg Med Chem, 2025):
The source made the active and inactive calls. The rule behind the calls is not given here.

Key:
THP-1 = assay: Downregulation of c-Myc expression in human THP-1 cells incubated for 48 hrs by Western blot analysis; type: functional, cell-based; settings: dose 0.5-2.5 µM
[1] = Toxicity in nude mouse xenografted with human SK-OV-3 cells assessed as histopathological change in liver at 30 to 60 mg/kg, ip qd treated for 14 days by H and E staining based analysis; type: organism-based; settings: in vivo, 336 h, dose 30-60 mg/kg, time 14 day
U-937 [2] = assay: Induction of apoptosis in human U-937 cells assessed as early apoptotic cells at 2.5 uM incubated for 48 hrs by Annexin V-FITC/PI staining based flow cytometry (reference value: 2.72 %); type: functional
U-937 [3] = assay: Induction of apoptosis in human U-937 cells assessed as viable cells at 1 uM incubated for 48 hrs by Annexin V-FITC/PI staining based flow cytometry (reference value: 93.30 %); type: functional; settings: read-out: Activity
[4] = biological target: Signal transducer and activator of transcription 3 (Homo sapiens) (UniProt P40763); assay: Inhibition of STAT3 phosphorylation in human SK-OV-3 cells at 1 to 5 uM incubated for 48 hrs by Western blot analysis; type: cell-based; settings: dose 1-5 µM
Signal transducer and activator of transcription 3 (Homo sapiens), sequence (P40763 whole entry): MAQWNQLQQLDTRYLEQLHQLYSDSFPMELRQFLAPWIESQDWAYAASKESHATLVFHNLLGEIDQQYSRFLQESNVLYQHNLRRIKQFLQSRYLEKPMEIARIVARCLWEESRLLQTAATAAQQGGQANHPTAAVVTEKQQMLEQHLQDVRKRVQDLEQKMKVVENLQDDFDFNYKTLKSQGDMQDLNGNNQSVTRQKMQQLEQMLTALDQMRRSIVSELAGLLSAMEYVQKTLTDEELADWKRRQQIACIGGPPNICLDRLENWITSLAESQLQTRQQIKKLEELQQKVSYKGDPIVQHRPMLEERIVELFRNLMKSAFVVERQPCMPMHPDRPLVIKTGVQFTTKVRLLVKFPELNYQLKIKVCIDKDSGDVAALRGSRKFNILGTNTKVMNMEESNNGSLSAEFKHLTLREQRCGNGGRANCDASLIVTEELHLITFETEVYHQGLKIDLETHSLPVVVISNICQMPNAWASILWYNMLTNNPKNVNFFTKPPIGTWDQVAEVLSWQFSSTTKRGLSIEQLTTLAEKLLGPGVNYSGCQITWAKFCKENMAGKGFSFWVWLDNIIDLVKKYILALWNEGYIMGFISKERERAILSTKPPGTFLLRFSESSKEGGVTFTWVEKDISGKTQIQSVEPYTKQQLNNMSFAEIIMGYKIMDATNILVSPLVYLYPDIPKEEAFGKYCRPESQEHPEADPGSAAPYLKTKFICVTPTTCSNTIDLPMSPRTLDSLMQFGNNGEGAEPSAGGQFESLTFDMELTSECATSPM

U-937 [5] = assay: Induction of apoptosis in human U-937 cells assessed as viable cells at 0.5 uM incubated for 48 hrs by Annexin V-FITC/PI staining based flow cytometry (reference value: 93.30 %); type: functional; settings: read-out: Activity
U-937 [6] = assay: Induction of apoptosis in human U-937 cells assessed as change in mitochondrial membrane potential at 5 uM incubated for 48 hrs by JC-1 staining based flow cytometry (reference value: 2.20 %); type: functional
U-937 [7] = assay: Upregulation of p21 expression in human U-937 cells incubated for 48 hrs by Western blot analysis; type: functional, cell-based
U-937 [8] = assay: Downregulation of TAZ expression in human U-937 cells incubated for 48 hrs by Western blot analysis; type: functional, cell-based; settings: dose 0.5-2.5 µM

| SMILES | Activity (THP-1) | Activity [1] | Activity (U-937 [2]) [%] | viability at 1 µM (U-937 [3]) [%] | inhibition [4] | viability at 0.5 µM (U-937 [5]) [%] | Activity (U-937 [6]) [%] | Activity (U-937 [7]) | Activity (U-937 [8]) |
| --- | --- | --- | --- | --- | --- | --- | --- | --- | --- |
| CCc1nccnc1C(=O)/C=C/c1ccccn1 | Dose-dependent-effect | – | – | – | – | – | – | – | – |
| Cc1nccnc1C(=O)/C=C/c1cccc(C#N)c1 | – | Non-toxic | 11.68 | 76.2 | Active | 80.9 | 21.63 | Dose-dependent-effect | Dose-dependent-effect |
